Assay results taken from PubChem BioAssay (NCI).
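All cell lines were grown in 96-well plates and treated with compound for 48 hours. GI50: concentration for 50% inhibition of growth. Definition used: TGI = concentration required for complete inhibition of growth.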

Key:
Assay in all cases: inhibition of tumour cell growth, NCI panel, 48 h
[1] = test system: A498 renal
[2] = test system: A549 NSCLC
[3] = test system: BT-549 breast
[4] = test system: CCRF-CEM leukemia
[5] = test system: DU-145 prostate
[6] = test system: EKVX NSCLC
[7] = test system: HCC-2998 colon
[8] = test system: HCT-15 colon
[9] = test system: HL-60(TB) leukemia
[10] = test system: HT29 colon
[11] = test system: IGROV1 ovarian
[12] = test system: KM12 colon
[13] = test system: LOX IMVI melanoma
[14] = test system: MOLT-4 leukemia
[15] = test system: NCI-H23 lung
[16] = test system: NCI-H460 lung
[17] = test system: NCI-H522 lung
[18] = test system: NCI/ADR-RES ovarian
[19] = test system: OVCAR-4 ovarian
[20] = test system: OVCAR-8 ovarian
[21] = test system: PC-3 prostate
[22] = test system: RPMI-8226 leukemia
[23] = test system: SF-268 CNS
[24] = test system: SF-295 CNS
[25] = test system: SF-539 CNS
[26] = test system: SK-MEL-2 melanoma
[27] = test system: SK-MEL-28 melanoma
[28] = test system: SK-MEL-5 melanoma
[29] = test system: SK-OV-3 ovarian
[30] = test system: SN12C renal
[31] = test system: SNB-19 CNS
[32] = test system: SR leukemia
[33] = test system: SW-620 colon
[34] = test system: T-47D breast
[35] = test system: TK-10 renal
[36] = test system: U251 CNS
[37] = test system: UACC-257 melanoma
[38] = test system: ACHN renal
[39] = test system: CAKI-1 renal
[40] = test system: COLO 205 colon
[41] = test system: HOP-92 NSCLC
[42] = test system: HS 578T breast
[43] = test system: M14 melanoma
[44] = test system: MCF7 breast
[45] = test system: MDA-MB-231 breast
[46] = test system: MDA-MB-435
[47] = test system: NCI-H226 lung
[48] = test system: OVCAR-3 ovarian
[49] = test system: OVCAR-5 ovarian
[50] = test system: SNB-75 CNS
[51] = test system: UACC-62 melanoma
[52] = test system: UO-31 renal

COC(=O)c1cc2c3c(cc(O)c2[nH]1)N(C(=O)C1Cc2cc(OC)c(OC)c(OC)c2N1)CC3CCl (configuration not stated)
GI50 [1]: < 0.01 µM
TGI [1]: < 0.01 µM
GI50 [2]: < 0.01 µM
TGI [2]: 1.36 µM
GI50 [3]: < 0.01 µM
TGI [3]: < 0.01 µM
GI50 [4]: < 0.01 µM
TGI [4]: > 100 µM
GI50 [5]: < 0.01 µM
TGI [5]: 0.106 µM
GI50 [6]: < 0.01 µM
TGI [6]: < 0.01 µM
GI50 [7]: < 0.01 µM
TGI [7]: 0.113 µM
GI50 [8]: < 0.01 µM
TGI [8]: 10.4 µM
GI50 [9]: < 0.01 µM
TGI [9]: 0.0102 µM
GI50 [10]: < 0.01 µM
TGI [10]: < 0.01 µM
GI50 [11]: < 0.01 µM
TGI [11]: 0.98 µM
GI50 [12]: < 0.01 µM
TGI [12]: 0.0142 µM
GI50 [13]: < 0.01 µM
TGI [13]: 0.291 µM
GI50 [14]: < 0.01 µM
TGI [14]: 0.132 µM
GI50 [15]: < 0.01 µM
TGI [15]: < 0.01 µM
GI50 [16]: < 0.01 µM
TGI [16]: 0.175 µM
GI50 [17]: < 0.01 µM
TGI [17]: < 0.01 µM
GI50 [18]: < 0.01 µM
TGI [18]: > 100 µM
GI50 [19]: < 0.01 µM
TGI [19]: 0.845 µM
GI50 [20]: < 0.01 µM
TGI [20]: 0.014 µM
GI50 [21]: < 0.01 µM
TGI [21]: < 0.01 µM
GI50 [22]: < 0.01 µM
TGI [22]: < 0.01 µM
GI50 [23]: < 0.01 µM
TGI [23]: 0.646 µM
GI50 [24]: < 0.01 µM
TGI [24]: < 0.01 µM
GI50 [25]: < 0.01 µM
TGI [25]: < 0.01 µM
GI50 [26]: < 0.01 µM
TGI [26]: < 0.01 µM
GI50 [27]: < 0.01 µM
TGI [27]: < 0.01 µM
GI50 [28]: < 0.01 µM
TGI [28]: < 0.01 µM
GI50 [29]: < 0.01 µM
TGI [29]: < 0.01 µM
GI50 [30]: < 0.01 µM
TGI [30]: 0.0154 µM
GI50 [31]: < 0.01 µM
TGI [31]: 1.05 µM
GI50 [32]: < 0.01 µM
TGI [32]: > 100 µM
GI50 [33]: < 0.01 µM
TGI [33]: 0.132 µM
GI50 [34]: < 0.01 µM
TGI [34]: < 0.01 µM
GI50 [35]: < 0.01 µM
TGI [35]: < 0.01 µM
GI50 [36]: < 0.01 µM
TGI [36]: 0.0109 µM
GI50 [37]: < 0.01 µM
TGI [37]: < 0.01 µM

COc1cc(/C=C2\CN(S(=O)(=O)c3ccc(C)cc3)C/C(=C\c3cc(CN4CCCCC4)c(O)c(OC)c3)C2=O)cc(CN2CCCCC2)c1O
GI50 [38]: 1.44 µM
TGI [38]: 2.74 µM
GI50 [3]: 1.38 µM
TGI [3]: 2.77 µM
GI50 [39]: 1.73 µM
TGI [39]: 3.27 µM
GI50 [4]: 0.307 µM
TGI [4]: 1.13 µM
GI50 [40]: 1.68 µM
TGI [40]: 3.58 µM
GI50 [5]: 1.85 µM
TGI [5]: 3.53 µM
GI50 [6]: 1.98 µM
TGI [6]: 4.58 µM
GI50 [7]: 1.78 µM
TGI [7]: 3.37 µM
GI50 [9]: 1.88 µM
TGI [9]: 4.34 µM
GI50 [41]: 1.55 µM
TGI [41]: 3.19 µM
GI50 [42]: 1.92 µM
TGI [42]: 4.5 µM
GI50 [43]: 1.61 µM
TGI [43]: 3.27 µM
GI50 [44]: 0.375 µM
TGI [44]: 2.39 µM
GI50 [45]: 1.14 µM
TGI [45]: 2.77 µM
GI50 [46]: 0.36 µM
TGI [46]: 1.39 µM
GI50 [14]: 0.918 µM
TGI [14]: 5.04 µM
GI50 [47]: 1.76 µM
TGI [47]: 4.29 µM
GI50 [17]: 0.306 µM
TGI [17]: 1.32 µM
GI50 [18]: 1.22 µM
TGI [18]: 3.77 µM
GI50 [48]: 1.85 µM
TGI [48]: 3.59 µM
GI50 [49]: 1.88 µM
TGI [49]: 3.4 µM
GI50 [21]: 1.87 µM
TGI [21]: 4.75 µM
GI50 [22]: 2.03 µM
TGI [22]: 5.45 µM
GI50 [24]: 2.26 µM
TGI [24]: 5.15 µM
GI50 [25]: 1.74 µM
TGI [25]: 3.31 µM
GI50 [27]: 1.61 µM
TGI [27]: 3.13 µM
GI50 [28]: 1.81 µM
TGI [28]: 3.47 µM
GI50 [29]: 1.91 µM
TGI [29]: 3.6 µM
GI50 [30]: 1.77 µM
TGI [30]: 3.42 µM
GI50 [50]: 1.64 µM
TGI [50]: 3.41 µM
GI50 [35]: 1.98 µM
TGI [35]: 3.63 µM
GI50 [37]: 1.45 µM
TGI [37]: 3.02 µM
GI50 [51]: 1.63 µM
TGI [51]: 3.32 µM
GI50 [52]: 1.6 µM
TGI [52]: 3.03 µM
